Measured values from ChEMBL document CHEMBL1201862, “PubChem BioAssay data set” (2004).
Blank lines part the entries; values can stand above or below the compound they belong to. Calls of active or inactive are those of the source.

What was measured:
Cytochrome P450 1A2 = target: T1, Cytochrome P450 1A2 (Homo sapiens, UniProt P05177);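 also: PubChem cytochrome P450 panel assay, CYP1A2 panel member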
T1 sequence (P05177 whole entry): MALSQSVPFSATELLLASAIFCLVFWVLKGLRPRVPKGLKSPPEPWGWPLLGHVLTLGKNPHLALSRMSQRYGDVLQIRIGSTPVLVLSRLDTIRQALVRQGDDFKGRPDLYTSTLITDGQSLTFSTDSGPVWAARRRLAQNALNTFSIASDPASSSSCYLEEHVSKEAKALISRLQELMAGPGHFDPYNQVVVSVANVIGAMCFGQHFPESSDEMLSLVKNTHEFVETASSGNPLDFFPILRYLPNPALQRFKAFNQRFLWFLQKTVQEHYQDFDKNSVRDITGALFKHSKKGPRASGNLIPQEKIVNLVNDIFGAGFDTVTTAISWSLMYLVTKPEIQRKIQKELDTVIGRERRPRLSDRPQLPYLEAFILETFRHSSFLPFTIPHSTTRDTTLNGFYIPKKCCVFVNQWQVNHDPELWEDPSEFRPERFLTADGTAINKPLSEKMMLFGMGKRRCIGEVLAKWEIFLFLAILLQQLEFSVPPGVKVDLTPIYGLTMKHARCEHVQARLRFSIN

Cytochrome P450 2C19 = Cytochrome P450 2C19 (Homo sapiens, UniProt P33261); assay: Cytochrome panel assay with activity outcomes. Panel member name: p450-cyp2c19 Compounds with AC50 equal or less than 10 uM are considered active; format: functional; details: read-out: AC50
[1] = target: T2, Corticotropin-releasing factor receptor 2/Corticotropin-releasing factor-binding protein (Homo sapiens, UniProt P24387+Q13324); assay: activators of CRF receptor 2 with binding protein – uHTS hits, confirmation (AID 602473); format: functional; details: read-out: EC50_Mean
T2 sequence (Q13324 whole entry): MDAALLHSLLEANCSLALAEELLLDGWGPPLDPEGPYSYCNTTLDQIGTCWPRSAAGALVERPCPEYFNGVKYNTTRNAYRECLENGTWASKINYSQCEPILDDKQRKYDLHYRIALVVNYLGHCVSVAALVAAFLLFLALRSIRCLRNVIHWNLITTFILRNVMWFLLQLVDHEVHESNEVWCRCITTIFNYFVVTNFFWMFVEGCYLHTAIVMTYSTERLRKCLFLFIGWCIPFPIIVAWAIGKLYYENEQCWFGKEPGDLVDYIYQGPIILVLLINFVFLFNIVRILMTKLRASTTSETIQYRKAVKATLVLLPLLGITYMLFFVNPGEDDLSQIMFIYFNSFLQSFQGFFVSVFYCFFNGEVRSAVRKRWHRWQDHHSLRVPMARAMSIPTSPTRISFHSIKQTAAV
T2 sequence (P24387 whole entry): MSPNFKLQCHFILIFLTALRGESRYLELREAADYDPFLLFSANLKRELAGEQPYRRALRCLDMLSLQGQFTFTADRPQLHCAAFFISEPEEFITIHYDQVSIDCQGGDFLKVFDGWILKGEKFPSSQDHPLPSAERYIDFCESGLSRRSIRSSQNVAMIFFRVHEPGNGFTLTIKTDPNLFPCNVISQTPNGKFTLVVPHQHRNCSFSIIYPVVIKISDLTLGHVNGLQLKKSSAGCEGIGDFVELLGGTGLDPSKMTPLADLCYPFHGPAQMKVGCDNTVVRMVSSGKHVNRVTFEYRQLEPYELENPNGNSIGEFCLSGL

[2] = target: T3, Zinc finger protein mex-5 (Caenorhabditis elegans, UniProt Q9XUB2); assay: MEX-5/TCR-2 RNA interaction inhibitors, dose response, biochemical, C. elegans, fluorescence polarization (AID 1960)
T3 sequence (Q9XUB2 whole entry): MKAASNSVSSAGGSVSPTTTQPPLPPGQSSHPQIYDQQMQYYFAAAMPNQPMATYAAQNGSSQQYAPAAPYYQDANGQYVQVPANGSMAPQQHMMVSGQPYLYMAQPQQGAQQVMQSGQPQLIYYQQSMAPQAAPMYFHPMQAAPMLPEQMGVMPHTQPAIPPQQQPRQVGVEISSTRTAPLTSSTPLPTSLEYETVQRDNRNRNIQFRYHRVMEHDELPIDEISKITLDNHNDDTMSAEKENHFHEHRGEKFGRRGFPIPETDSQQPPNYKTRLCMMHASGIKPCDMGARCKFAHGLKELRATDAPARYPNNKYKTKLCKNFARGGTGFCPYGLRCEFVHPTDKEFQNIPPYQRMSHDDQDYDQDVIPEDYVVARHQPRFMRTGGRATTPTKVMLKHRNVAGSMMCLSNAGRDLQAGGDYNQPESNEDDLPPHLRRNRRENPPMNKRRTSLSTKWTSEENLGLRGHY

[3] = target: T4, RNA-binding protein pos-1 (Caenorhabditis elegans, UniProt G5EF15); assay: inhibitors of POS-1/mex-3 RNA binding, dose response, biochemical, fluorescence polarization (AID 1964);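 also: purified POS-1 fused to maltose binding protein made in E. coli; potency of compounds blocking POS-1 binding to fluorescent RNA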
T4 sequence (G5EF15 whole entry): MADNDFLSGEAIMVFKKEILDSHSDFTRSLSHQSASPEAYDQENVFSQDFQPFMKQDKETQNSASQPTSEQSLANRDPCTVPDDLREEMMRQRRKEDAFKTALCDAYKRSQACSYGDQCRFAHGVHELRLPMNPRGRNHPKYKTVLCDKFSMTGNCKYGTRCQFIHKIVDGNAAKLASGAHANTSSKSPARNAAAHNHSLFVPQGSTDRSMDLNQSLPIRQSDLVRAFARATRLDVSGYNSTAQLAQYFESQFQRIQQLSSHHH

[4] = target: T5, Heat shock factor protein 1 (Mus musculus, UniProt P38532); assay: inhibition of MG132-induced HSE-luciferase signal, confirmation, cell-based, NIH3T3, luminescence, dose retest (AID 2382); format: functional;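 also: NIH3T3 fibroblasts with HSF1-driven luciferase reporter stressed by proteasome inhibitor MG132; luminescence from HSF1-driven luciferase expression after 8 hours of MG132 stress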
T5 sequence (P38532 whole entry): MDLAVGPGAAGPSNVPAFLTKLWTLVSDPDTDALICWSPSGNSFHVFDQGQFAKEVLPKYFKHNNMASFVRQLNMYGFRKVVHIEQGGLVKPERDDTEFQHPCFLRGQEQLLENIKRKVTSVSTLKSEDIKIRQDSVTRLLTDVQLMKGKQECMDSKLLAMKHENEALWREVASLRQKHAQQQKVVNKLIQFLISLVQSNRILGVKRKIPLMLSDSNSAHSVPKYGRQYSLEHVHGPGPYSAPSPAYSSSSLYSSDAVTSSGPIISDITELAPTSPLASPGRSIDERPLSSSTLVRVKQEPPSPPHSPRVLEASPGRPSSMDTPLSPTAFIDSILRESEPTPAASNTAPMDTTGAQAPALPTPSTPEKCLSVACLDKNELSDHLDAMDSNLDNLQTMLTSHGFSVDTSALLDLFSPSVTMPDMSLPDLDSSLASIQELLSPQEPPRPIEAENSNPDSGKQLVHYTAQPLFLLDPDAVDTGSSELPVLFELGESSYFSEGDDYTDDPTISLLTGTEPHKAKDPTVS

Cytochrome P450 2C9 = Cytochrome P450 2C9 (Homo sapiens, UniProt P11712)
Sequence of Cytochrome P450 2C9 (P11712 whole entry): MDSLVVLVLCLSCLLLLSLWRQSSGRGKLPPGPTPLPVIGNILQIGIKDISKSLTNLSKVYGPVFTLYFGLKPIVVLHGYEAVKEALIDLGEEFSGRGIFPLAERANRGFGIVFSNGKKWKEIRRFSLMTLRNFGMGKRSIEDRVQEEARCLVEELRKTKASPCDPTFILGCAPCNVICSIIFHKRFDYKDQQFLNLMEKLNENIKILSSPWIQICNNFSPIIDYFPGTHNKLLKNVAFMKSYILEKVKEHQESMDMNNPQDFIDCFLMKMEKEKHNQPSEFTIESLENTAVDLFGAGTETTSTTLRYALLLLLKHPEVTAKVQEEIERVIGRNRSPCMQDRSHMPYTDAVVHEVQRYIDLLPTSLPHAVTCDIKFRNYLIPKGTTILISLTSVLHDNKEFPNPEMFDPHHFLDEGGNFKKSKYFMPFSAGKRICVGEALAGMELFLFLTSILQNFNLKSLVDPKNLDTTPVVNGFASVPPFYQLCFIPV

Sequence of Cytochrome P450 2C19 (P33261 whole entry): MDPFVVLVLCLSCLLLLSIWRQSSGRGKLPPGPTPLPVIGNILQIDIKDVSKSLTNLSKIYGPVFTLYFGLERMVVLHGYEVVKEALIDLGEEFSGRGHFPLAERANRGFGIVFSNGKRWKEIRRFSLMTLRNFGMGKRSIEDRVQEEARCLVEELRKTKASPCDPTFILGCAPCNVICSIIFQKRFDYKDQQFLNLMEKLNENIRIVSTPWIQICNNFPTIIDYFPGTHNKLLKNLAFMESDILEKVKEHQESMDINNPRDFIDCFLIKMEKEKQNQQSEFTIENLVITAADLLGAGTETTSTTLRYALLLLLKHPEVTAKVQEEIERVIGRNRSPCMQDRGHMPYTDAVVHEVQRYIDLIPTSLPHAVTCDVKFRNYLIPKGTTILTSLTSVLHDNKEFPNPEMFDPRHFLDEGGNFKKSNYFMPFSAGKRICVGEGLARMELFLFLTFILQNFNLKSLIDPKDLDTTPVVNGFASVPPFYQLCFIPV

EC50 [1]: > 53 µM (inactive)
Structure (SMILES): CC(=O)Nc1ccccc1Sc1ccc2c3c(cccc13)C(=O)N(c1ccc(C)cc1)C2=O

AC50 (Cytochrome P450 2C19): 15.8 µM (inconclusive)
Structure (SMILES): CCN(CC)C(=O)CSc1nnc(-c2cc3ccccc3cc2O)n1CC

EC50 [4]: > 195 µM (not active)
Structure (SMILES): CCOC(=O)c1ccc(NC(=O)Oc2ccccc2)cc1

AC50 (Cytochrome P450 2C9): 15.8 µM (inconclusive)
Structure (SMILES): O=C(CSc1nnc(CNc2ccccc2)o1)N1CCCc2ccccc21

EC50 [4]: 14.1 µM (active)
Structure (SMILES): CC(C)(NC(=O)c1cc(Cl)c2ccccc2c1O)C(=O)O

EC50 [4]: 71.9 µM (active)
Structure (SMILES): Cc1cc(C)nc(NC(=O)COc2cc(Cl)cc(Cl)c2)n1

AC50 (Cytochrome P450 2C19): 14.1 µM (inconclusive)
Structure (SMILES): CC(NC(=O)CSc1nc(=O)cc(N)n1CCc1ccccc1)c1ccccc1 (stereo not drawn)

EC50 [4]: > 195 µM (not active)
Structure (SMILES): CCOC(=O)N1CCN(C(S)=Nc2ccc(C)cc2C)CC1

AC50 (Cytochrome P450 2C9): 3.55 µM (inconclusive) | AC50 (Cytochrome P450 2C19): 8.91 µM (inconclusive)
Structure (SMILES): CCOc1ccc(-n2c(N)c(C(=O)NCc3cccnc3)sc2=S)cc1

AC50 (Cytochrome P450 2C9): 17.8 µM (inconclusive)
Structure (SMILES): CCCCNC(=O)CCC(=O)Nc1ccc2nc(N3CCOCC3)cc(C)c2c1

AC50 (Cytochrome P450 2C9): 6.31 µM (inconclusive)
Structure (SMILES): COC(=O)c1cccc(C(=O)Nc2ccc(C)cc2)n1

AC50 (Cytochrome P450 1A2): 15.8 µM (inconclusive) | AC50 (Cytochrome P450 2C9): 31.6 µM (inconclusive) | AC50 (Cytochrome P450 2C19): 39.8 µM (inconclusive)
Structure (SMILES): COCCn1c(=O)c(C)nc2cncnc21

EC50 [4]: > 195 µM (not active)
Structure (SMILES): O=C(O)CSc1nc(-c2ccccc2)nc2c1oc1ccccc12

The next lines start with the compound.

Structure (SMILES): O=C(O)[C@H]1[C@H]2CN[C@H](C(=O)O)[C@H]21
AC50 (Cytochrome P450 1A2): 31.6 µM (inconclusive) | AC50 (Cytochrome P450 2C19): 31.6 µM (inconclusive)

Structure (SMILES): S=C(Nc1ccccc1)N1CCCCC1
AC50 (Cytochrome P450 1A2): 22.4 µM (inconclusive) | AC50 (Cytochrome P450 2C19): 17.8 µM (inconclusive)

Structure (SMILES): Cc1cc(/C=C2\SC(=O)N(C)C2=O)c(C)n1-c1cccc(C(=O)O)c1
EC50 [2]: > 300 µM (not active) | EC50 [3]: > 300 µM (not active)

Structure (SMILES): NCc1ccccc1.O=C(O)NCc1ccccc1
AC50 (Cytochrome P450 2C9): 3.98 µM (inconclusive) | AC50 (Cytochrome P450 2C19): 2.51 µM (inconclusive)

Structure (SMILES): O=C1CCC(c2ccccc2)(c2ccccc2)CC1
AC50 (Cytochrome P450 2C9): 6.31 µM (inconclusive)

Structure (SMILES): CCNc1nnc(-c2ccncc2)s1
AC50 (Cytochrome P450 1A2): 15.8 µM (inconclusive) | AC50 (Cytochrome P450 2C9): 17.8 µM (inconclusive)

Structure (SMILES): O=C(/C=C\c1ccc2c(c1)OCO2)c1ccc(F)cc1
AC50 (Cytochrome P450 2C9): 1.58 µM (inconclusive)

Structure (SMILES): O=c1oc2c(Cl)cc(Cl)cc2cc1-c1nnc(Nc2ccccc2F)s1
AC50 (Cytochrome P450 1A2): 15.8 µM (inconclusive)

Structure (SMILES): CN1C(=O)/C(=C/c2ccc3c(c2)OCO3)N=C1c1ccccc1
EC50 [2]: 75.1 µM (inconclusive) | EC50 [3]: > 300 µM (not active)

Structure (SMILES): Cc1ccc(NC(=O)CSc2nccc(=O)[nH]2)c(S(=O)(=O)N2CCOCC2)c1
EC50 [2]: > 300 µM (not active) | EC50 [3]: > 300 µM (not active)
